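Briefly, cells in 96-well plates were exposed to five compound concentrations for 48 h, and endpoints were estimated by linear interpolation. GI50 = concentration required for 50% inhibition of growth. At the TGI there is no net growth.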
Legend:
Test in all cases: growth of human tumour cells (NCI), 48 h
HL-60(TB) leukemia = tested on: HL-60(TB) leukemia
HCC-2998 colon = tested on: HCC-2998 colon
NCI-H226 lung = tested on: NCI-H226 lung
SF-539 CNS = tested on: SF-539 CNS
HCT-116 colon = tested on: HCT-116 colon
SF-268 CNS = tested on: SF-268 CNS
MDA-MB-435 = tested on: MDA-MB-435
HOP-92 NSCLC = tested on: HOP-92 NSCLC
OVCAR-5 ovarian = tested on: OVCAR-5 ovarian
M14 melanoma = tested on: M14 melanoma
NCI-H23 lung = tested on: NCI-H23 lung
SNB-19 CNS = tested on: SNB-19 CNS
HOP-62 NSCLC = tested on: HOP-62 NSCLC
SN12C renal = tested on: SN12C renal
TK-10 renal = tested on: TK-10 renal
NCI-H522 lung = tested on: NCI-H522 lung
A549 NSCLC = tested on: A549 NSCLC
MOLT-4 leukemia = tested on: MOLT-4 leukemia
SK-MEL-28 melanoma = tested on: SK-MEL-28 melanoma
SK-OV-3 ovarian = tested on: SK-OV-3 ovarian
COLO 205 colon = tested on: COLO 205 colon
786-0 renal = tested on: 786-0 renal
BT-549 breast = tested on: BT-549 breast
SR leukemia = tested on: SR leukemia
DU-145 prostate = tested on: DU-145 prostate
MALME-3M melanoma = tested on: MALME-3M melanoma
NCI/ADR-RES ovarian = tested on: NCI/ADR-RES ovarian
EKVX NSCLC = tested on: EKVX NSCLC
UO-31 renal = tested on: UO-31 renal
SW-620 colon = tested on: SW-620 colon
OVCAR-8 ovarian = tested on: OVCAR-8 ovarian
SK-MEL-5 melanoma = tested on: SK-MEL-5 melanoma
MCF7 breast = tested on: MCF7 breast
IGROV1 ovarian = tested on: IGROV1 ovarian
MDA-MB-231 breast = tested on: MDA-MB-231 breast
KM12 colon = tested on: KM12 colon
SF-295 CNS = tested on: SF-295 CNS
HS 578T breast = tested on: HS 578T breast
CAKI-1 renal = tested on: CAKI-1 renal
HCT-15 colon = tested on: HCT-15 colon
T-47D breast = tested on: T-47D breast
UACC-257 melanoma = tested on: UACC-257 melanoma
A498 renal = tested on: A498 renal
RXF 393 renal = tested on: RXF 393 renal
NCI-H460 lung = tested on: NCI-H460 lung
U251 CNS = tested on: U251 CNS
K-562 leukemia = tested on: K-562 leukemia
OVCAR-3 ovarian = tested on: OVCAR-3 ovarian
PC-3 prostate = tested on: PC-3 prostate
HT29 colon = tested on: HT29 colon
UACC-62 melanoma = tested on: UACC-62 melanoma
LOX IMVI melanoma = tested on: LOX IMVI melanoma
OVCAR-4 ovarian = tested on: OVCAR-4 ovarian
ACHN renal = tested on: ACHN renal
CCRF-CEM leukemia = tested on: CCRF-CEM leukemia

SMILES: Cc1cc2nc(-c3ccc(O)c(O)c3)n(Cc3ccc(O)c(O)c3)c2cc1C
- GI50 (HL-60(TB) leukemia): 9.33 µM
- TGI (HL-60(TB) leukemia): 47.4 µM
- GI50 (HCC-2998 colon): 24.6 µM
- TGI (HCC-2998 colon): 56.3 µM
- GI50 (NCI-H226 lung): 18.7 µM
- TGI (NCI-H226 lung): 35 µM
- GI50 (SF-539 CNS): 19.7 µM
- TGI (SF-539 CNS): > 100 µM
- GI50 (HCT-116 colon): 19.6 µM
- TGI (HCT-116 colon): 35.1 µM
- GI50 (SF-268 CNS): 18.5 µM
- TGI (SF-268 CNS): 84.3 µM
- GI50 (MDA-MB-435): 16 µM
- TGI (MDA-MB-435): > 100 µM
- GI50 (HOP-92 NSCLC): 9.7 µM
- TGI (HOP-92 NSCLC): 55 µM
- GI50 (OVCAR-5 ovarian): > 100 µM
- TGI (OVCAR-5 ovarian): > 100 µM
- GI50 (M14 melanoma): 39.2 µM
- TGI (M14 melanoma): > 100 µM
- GI50 (NCI-H23 lung): 35.1 µM
- TGI (NCI-H23 lung): > 100 µM
- GI50 (SNB-19 CNS): 65 µM
- TGI (SNB-19 CNS): > 100 µM
- GI50 (HOP-62 NSCLC): 45.6 µM
- TGI (HOP-62 NSCLC): > 100 µM
- GI50 (SN12C renal): 18.5 µM
- TGI (SN12C renal): 44.8 µM
- GI50 (TK-10 renal): 26.9 µM
- TGI (TK-10 renal): 82.6 µM
- GI50 (NCI-H522 lung): 6.71 µM
- TGI (NCI-H522 lung): 23.9 µM
- GI50 (A549 NSCLC): 40.2 µM
- TGI (A549 NSCLC): > 100 µM
- GI50 (MOLT-4 leukemia): 4.4 µM
- TGI (MOLT-4 leukemia): 28.6 µM
- GI50 (SK-MEL-28 melanoma): 87.6 µM
- TGI (SK-MEL-28 melanoma): > 100 µM
- GI50 (SK-OV-3 ovarian): > 100 µM
- TGI (SK-OV-3 ovarian): > 100 µM
- GI50 (COLO 205 colon): 24.5 µM
- TGI (COLO 205 colon): > 100 µM
- GI50 (786-0 renal): 34 µM
- TGI (786-0 renal): > 100 µM
- GI50 (BT-549 breast): 28.9 µM
- TGI (BT-549 breast): > 100 µM
- GI50 (SR leukemia): 4.18 µM
- TGI (SR leukemia): 19.5 µM
- GI50 (DU-145 prostate): 40.7 µM
- TGI (DU-145 prostate): > 100 µM
- GI50 (MALME-3M melanoma): 27.2 µM
- TGI (MALME-3M melanoma): > 100 µM
- GI50 (NCI/ADR-RES ovarian): > 100 µM
- TGI (NCI/ADR-RES ovarian): > 100 µM
- GI50 (EKVX NSCLC): 79.9 µM
- TGI (EKVX NSCLC): > 100 µM
- GI50 (UO-31 renal): 64.3 µM
- TGI (UO-31 renal): > 100 µM
- GI50 (SW-620 colon): 24.7 µM
- TGI (SW-620 colon): > 100 µM
- GI50 (OVCAR-8 ovarian): 26.4 µM
- TGI (OVCAR-8 ovarian): > 100 µM
- GI50 (SK-MEL-5 melanoma): 17.5 µM
- TGI (SK-MEL-5 melanoma): 39.9 µM
- GI50 (MCF7 breast): 24.4 µM
- TGI (MCF7 breast): 80.7 µM
- GI50 (IGROV1 ovarian): 18.1 µM
- TGI (IGROV1 ovarian): > 100 µM
- GI50 (MDA-MB-231 breast): 24.1 µM
- TGI (MDA-MB-231 breast): 77.3 µM
- GI50 (KM12 colon): 23.5 µM
- TGI (KM12 colon): > 100 µM
- GI50 (SF-295 CNS): 20.2 µM
- TGI (SF-295 CNS): 66.3 µM
- GI50 (HS 578T breast): 41.3 µM
- TGI (HS 578T breast): > 100 µM
- GI50 (CAKI-1 renal): 17 µM
- TGI (CAKI-1 renal): 81.1 µM
- GI50 (HCT-15 colon): 7.1 µM
- TGI (HCT-15 colon): 35.8 µM
- GI50 (T-47D breast): 31.8 µM
- TGI (T-47D breast): > 100 µM
- GI50 (UACC-257 melanoma): 36 µM
- TGI (UACC-257 melanoma): 95.9 µM
- GI50 (A498 renal): 77.2 µM
- TGI (A498 renal): > 100 µM
- GI50 (RXF 393 renal): 21.2 µM
- TGI (RXF 393 renal): > 100 µM
- GI50 (NCI-H460 lung): 13.4 µM
- TGI (NCI-H460 lung): 43.1 µM
- GI50 (U251 CNS): 5 µM
- TGI (U251 CNS): > 100 µM
- GI50 (K-562 leukemia): 7.43 µM
- TGI (K-562 leukemia): > 100 µM
- GI50 (OVCAR-3 ovarian): 14.6 µM
- TGI (OVCAR-3 ovarian): 77 µM
- GI50 (PC-3 prostate): 22.5 µM
- TGI (PC-3 prostate): > 100 µM
- GI50 (HT29 colon): 45.1 µM
- TGI (HT29 colon): > 100 µM
- GI50 (UACC-62 melanoma): 19 µM
- TGI (UACC-62 melanoma): 41.1 µM
- GI50 (LOX IMVI melanoma): 13.1 µM
- TGI (LOX IMVI melanoma): 28.4 µM
- GI50 (OVCAR-4 ovarian): 54.9 µM
- TGI (OVCAR-4 ovarian): > 100 µM
- GI50 (ACHN renal): 15.3 µM
- TGI (ACHN renal): 59.6 µM
- GI50 (CCRF-CEM leukemia): 4.23 µM
- TGI (CCRF-CEM leukemia): 25.5 µM

— PubChem BioAssay (NCI)
